Results on 1 compound are retold here after patent publication US4609667A, “Inhibitor of mammalian collagenase and elastase” (American Home Products Corporation, priority 1985, dated 1986).

Type in all cases: biochemical
The target of assay [1] is Collagenase produced by normal human leukocytes or by normal human skin fibroblasts. Nature of the assay: in vitro collagenase inhibition assay (14C-acetylated collagen hydrolysis). The note with it: pH 7.4, 35° C., one to five hours. How it is done:
The compound N-[[(5-chloro-2-benzothiazolyl)thio]-phenylacetyl]-L-cysteine is tested for collagenase inhibition in an in vitro assay based on the procedure described by A. Sellers and J.J. Reynolds, Biochem. J., 167 (1977) pp. 353-60.
Collagenase produced by normal human leukocytes or by normal human skin fibroblasts in cell cultures is purified by adsorption onto a collagen Sepharose 4B column. Prior to use in the assay, the zymogen is activated with trypsin, while the trypsin in turn, is inactivated with an excess of soybean trypsin inhibitor.
According to the assay procedure, microfuge tubes are prepared containing a total of about 150 μl. of solution containing: 25 μl. collagen (^14 C-acetylated collagen--2 mg./ml in 0.01% acetic acid); 25 μl. of 0.15 M tris/0.015 M CaCl2, pH 7.4; 75 μl. collagenase in tris buffer (0.05 M tris/0.005 M CaCl2, pH 7.4); and 25 μl. of collagenase inhibitor in tris buffer. Samples and controls are incubated at 35° C. for one to five hours depending upon potency of the enzyme. At the end of the reaction period, the tubes are spun down in a Beckman Microfuge. A 25 μl. aliquot of each tube is then assayed in a scintillation counter. Since native collagen forms insoluble fibrils under these conditions, radioactivity detected in the supernate is a measure of collagen hydrolysis. […]

In assay [2] the target is T1, human leukocyte elastase (Homo sapiens, UniProt P08246).
T1 construct: A crude elastase preparation is made by homogenizing human leukocyte granules; from tissue; host or cells: human leukocyte granules (homogenized, supernatant dialyzed; crude preparation)
T1 sequence (P08246 30-247 limits assumed): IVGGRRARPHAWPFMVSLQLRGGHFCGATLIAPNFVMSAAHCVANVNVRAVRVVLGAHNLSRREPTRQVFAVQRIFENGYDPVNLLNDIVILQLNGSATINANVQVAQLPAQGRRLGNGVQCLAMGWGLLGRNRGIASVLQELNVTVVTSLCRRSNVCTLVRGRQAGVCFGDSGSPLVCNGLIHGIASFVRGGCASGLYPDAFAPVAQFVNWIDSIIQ
As to the kind of experiment: human elastase inhibition in vitro assay, Method 1 (succinyl-L-alanyl-L-alanyl-L-alanyl-p-nitroanilide substrate). How it is done:
(§1) The compound N-[[5-chloro-2-benzothiazolyl)thio]-phenylacetyl]-L-cysteine is tested for human elastase inhibition in an in vitro assay which is carried out as follows:
(§2) A crude elastase preparation is made by homogenizing human leukocyte granules [prepared according to the method of R. J. Baryk and J. Travis, Biochemistry, 15, (4), 837 (1976)], spinning and dialyzing the supernates against cold 0.05 M trisHCl/0.05 M Na Cl at a pH 8.0.
(§3) This elastase preparation is used in two assay methods to test for elastase inhibition.
400 μl of the elastase preparation, 10 μl (0.0625 mg) of succinyl-L-alanyl-L-alanyl-L-alanyl-p-nitroanilide (the enzyme substrate), 207 μl of buffer and varying amounts of the elastase inhibitor under testing are incubated at 37° C. for 19 hours. The hydrolysis is measured by use of high pressure liquid chromatography (HPLC) or by the spectrophotometric measurement of the release of p-nitroaniline at a wavelength of 410 nm.

The target of assay [3] is T1, human leukocyte elastase. Nature of the assay: human elastase inhibition in vitro assay, Method 2 (elastin-Congo red complex). The conditions noted are these: 20 μg of compound; 37° C., 18 hours; Standard (complete hydrolysis by hog pancreatic elastase) 1.0; No Inhibitor 0.104. On the procedure:
as §1, §2, §3
In this method, the substrate used is an elastin-Congo red complex. Hydrolysis of this substrate by elastase releases Congo red, which is assayed by HPLC. The assay system also contains buffer and either 20 μg of the compound of Example 1, or no compound. The system is incubated at 37° C. for 18 hours. The standard sample represents the complete hydrolysis of the elastin-Congo red complex by hog pancreatic elastase.

Structures are written as SMILES.

Take `O=C(N[C@@H](CS)C(=O)O)C(Sc1nc2cc(Cl)ccc2s1)c1ccccc1` (stereo partly drawn) [Example 1, N-[[(5-chloro-2-benzothiazolyl)thio]phenylacetyl]-L-cysteine]: the IC50 (usually the concentration needed to halve the response being measured) is 5.7 µM in assay [1] (Experiment 1: Collagen I as substrate); 12.5 µM in assay [1] (Experiment 2: Collagen II as substrate); 4.78 µM against human leukocyte elastase [2] (37° C., 19 hours, HPLC or 410 nm). Further, at human leukocyte elastase [2] (conclusion from Methods 1 and 2), the “inhibitory effect on the enzymatic activity of human leukocyte elastase (in words)” value is recorded as “strong inhibitory effect”. In addition, the “Relative Release of Congo Red” value on human leukocyte elastase [3] amounted to 0.000.
